Data from publication PMC12264121 (Scientific Reports, 2025).

Experiments:
Assay type in all cases: biochemical
hCA-II [1] = molecular target: T1, hCA-II (Homo sapiens, UniProt P00918); assay: Carbonic anhydrase inhibition assay
hCA-IX [2] = molecular target: T2, hCA-IX (Homo sapiens, UniProt Q16790); assay: biochemical
hCA-XII [3] = molecular target: T3, hCA-XII (Homo sapiens, UniProt O43570); assay: Carbonic anhydrase inhibition assay
hCA-XII [4] = molecular target: T3, hCA-XII; assay: Enzyme kinetics; details: CA-XII; substrate 0-900 µM; inhibitor 0, 0.4, 0.6, 0.8 µM
hCA-IX [5] = molecular target: T2, hCA-IX; assay: Enzyme kinetics; details: CA-IX; substrate 0-900 µM; inhibitor 0, 0.1, 0.2, 0.3 µM
hCA-II [6] = molecular target: T1, hCA-II; assay: Enzyme kinetics; details: CA-II; substrate 0-900 µM; inhibitor 0, 0.2, 0.4, 0.6 µM

T3 sequence (O43570 25-354): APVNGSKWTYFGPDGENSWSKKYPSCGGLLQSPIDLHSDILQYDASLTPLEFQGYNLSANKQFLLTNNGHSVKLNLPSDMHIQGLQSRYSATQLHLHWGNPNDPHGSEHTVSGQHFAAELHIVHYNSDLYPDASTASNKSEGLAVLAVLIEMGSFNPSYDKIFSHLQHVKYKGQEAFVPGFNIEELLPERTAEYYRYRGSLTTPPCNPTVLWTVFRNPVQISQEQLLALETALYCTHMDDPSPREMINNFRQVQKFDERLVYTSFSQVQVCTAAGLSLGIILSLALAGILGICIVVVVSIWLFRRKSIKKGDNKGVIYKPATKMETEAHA

inhibition of hCA-XII in words (hCA-XII [3]) | IC50 (hCA-IX [2]) [nM] | IC50 (hCA-XII [3]) [nM] | IC50 (hCA-II [1]) [nM] | SMILES | other results
inactive | – | – | – | Cc1cc(C)cc(Nc2ccc(-c3ccc(S(N)(=O)=O)cc3)cc2)c1 [Compound 9c, 4’-((3,5-dimethylphenyl)amino)-[1,1’-biphenyl]−4-sulfonamide] | inhibition of hCA-II in words (hCA-II [1]): inactive; inhibition of hCA-IX in words (hCA-IX [2]): inactive
– | 2790 ± 20 | 1050 ± 100 | – | NS(=O)(=O)c1ccc(-c2ccc(Nc3ccc(Cl)cc3)cc2)cc1 [Compound 9a, 4’-((4-chlorophenyl)amino)-[1,1’-biphenyl]−4-sulfonamide] | –
– | 1460 ± 80 | 690 ± 150 | 1030 ± 100 | COC(=O)c1ccc(Nc2ccc(-c3ccc(S(N)(=O)=O)cc3)cc2)cc1 [Compound 9b, Methyl 4-((4’-sulfamoyl-[1,1’-biphenyl]−4-yl)amino)benzoate] | Mode of Enzyme Inhibition (hCA-XII [4]): Competitive
– | – | – | 1010 ± 100 | NS(=O)(=O)c1ccc(-c2ccc(Nc3ccncc3)cc2)cc1 [Compound 9d, 4’-(pyridin-4-ylamino)-[1,1’-biphenyl]−4-sulfonamide] | inhibitor potential as compared to standard inhibitor acetazolamide (hCA-IX [2]; hCA-IX): 8 fold; Mode of Enzyme Inhibition (hCA-IX [5]): Uncompetitive
moderate inhibition | 3430 ± 150 | – | – | NS(=O)(=O)c1ccc(-c2ccc(Nc3ccc(F)c(Cl)c3)cc2)cc1 [Compound 9e, 4’-((3-chloro-4-fluorophenyl)amino)-[1,1’-biphenyl]−4-sulfonamide] | Mode of Enzyme Inhibition (hCA-II [6]): Competitive
